Data: patent US7146204B2, “Method and apparatus for quantitatively evaluating a kidney” (Yeda Research and Development Co., Ltd., priority 2002, dated 2006)
Entries after “also recorded” stand apart in the source; their conditions may differ.

Columns and labels:
rat kidney [1] = assay: dynamic 23Na MRI of renal sodium distribution after bolus injection of diuretic; assay type: in vivo; settings: for characteristic time constant of sodium decay in the inner medulla: dynamic 23Na MRI after bolus injection, fitted to Equation 1, n=7; for decrease in sodium level in the inner medulla: relative to pre-treatment, diuresis steady state level, n=7
Method: Materials and Methods—Animals: Studies were performed on female Lewis rats, 2–4 months old and weighing 250–300 g, that had free access to food and water. […] All animal protocols and maintenance procedures were in accordance with the guidelines of the Committee on Animals of the Weizmann Institute of Science, and were approved by this Committee. […] Only one diuretic was injected into each rat. […] Image analysis: Analysis of the kidney images was performed on selected regions of interest (ROIs) in the outer, median and inner parts of the kidney, representing the cortex, outer and inner medulla, respectively. The ROIs were defined on the corresponding coronal proton image recorded prior to the sodium images, at the same spatial resolution. The average digitized pixel intensity for each ROI was measured, and the sodium gradient was assessed by averaging the ratio of the sodium signal intensity between the inner and the outer medulla, and between the inner medulla and the cortex. […] In this analysis, the signal intensity in each pixel was measured from the cortex to the inner medulla along the corticomedullary axis. This yielded a graph of pixel signal intensity versus the distance of the pixel from the cortex. In the dynamic study, the average signal intensities of the inner medulla and the cortex ROIs, defined on the proton image, were measured in sodium images recorded sequentially and were then plotted against time. Statistical analysis to evaluate differences between pixels or ROIs in the same kidney, or before and after diuretic treatment, were performed by a two-tailed paired Student's t-test; otherwise, the unpaired version of this test was used. Results are presented as mean±SEM.

rat kidney [2] = assay: steady state diuresis 23Na MRI of corticomedullary sodium gradient; assay type: in vivo; settings: for reduction in sodium content in the inner medulla (summary statement): after bolus injection; for change of the cortical-outer medullar sodium gradient versus control / cortical-outer medullar sodium gradient (slope): pixel-by-pixel analysis
Method: Materials and Methods—Animals: Studies were performed on female Lewis rats, 2–4 months old and weighing 250–300 g, that had free access to food and water. Before MRI scanning, the rats were anesthetized by an intraperitoneal injection of sodium pentobarbital at a dosage of 0.04 mg/g body wt. All animal protocols and maintenance procedures were in accordance with the guidelines of the Committee on Animals of the Weizmann Institute of Science, and were approved by this Committee.
(§1) Mannitol solution (20%, 1 ml) and saline solution (0.9% NaCl, 1 ml) were injected as a bolus into the tail vein. Only one diuretic was injected into each rat.
In vivo MRI: ^1H and ^23Na spectra and images were recorded at 200 and 53 MHz, respectively with a 4.7 T Biospec spectrometer (Bruker, Rheinstetten, Germany) using a home-built 3 cm double-tuned surface coil. The rat was placed on the coil in a supine position, keeping the estimated kidney position approximately in the middle of the coil. 3D ^1H gradient echo images were recorded to localize the exact kidney position, using TE/TR of 6/30 ms FOV of 12×12×3.2 cm and a matrix of 256×256×32. For defining the regions of interest (ROI), 3D ^1H images were recorded with the same spatial resolution as that of the sodium images.
In the “steady state” studies, sodium images were recorded prior to injection of the diuretic (control measurement) and fifteen minutes after its injection. 3D ^23Na gradient echo images were recorded using a TE/TR of 3.1/60 ms and a 90° OSIRREAD adiabatic pulse, FOV of 12×12×8 cm, and a matrix of 128×128×16 with 10 or 20 scans (20 or 40 min, respectively).
Image analysis: Analysis of the kidney images was performed on selected regions of interest (ROIs) in the outer, median and inner parts of the kidney, representing the cortex, outer and inner medulla, respectively. The ROIs were defined on the corresponding coronal proton image recorded prior to the sodium images, at the same spatial resolution. The average digitized pixel intensity for each ROI was measured, and the sodium gradient was assessed by averaging the ratio of the sodium signal intensity between the inner and the outer medulla, and between the inner medulla and the cortex.
In addition, a pixel-by-pixel analysis was performed, in order to assess the behavior of the NMR sodium signal along the corticomedullary axis. In this analysis, the signal intensity in each pixel was measured from the cortex to the inner medulla along the corticomedullary axis. This yielded a graph of pixel signal intensity versus the distance of the pixel from the cortex. In the dynamic study, the average signal intensities of the inner medulla and the cortex ROIs, defined on the proton image, were measured in sodium images recorded sequentially and were then plotted against time.
Statistical analysis to evaluate differences between pixels or ROIs in the same kidney, or before and after diuretic treatment, were performed by a two-tailed paired Student's t-test; otherwise, the unpaired version of this test was used. Results are presented as mean±SEM.
In-vivo MRI: ^1H and ^23Na images and spectra were recorded at 200 and 53 MHz respectively with a 4.7 T Biospec spectrometer (Bruker, Karlsrhue, Germany) using a home built 3-cm, ^1H and ^23Na tuned surface coil. The rat was placed on the coil in a supine position with the kidney positioned in the middle of the coil. Axial and coronal 3D ^1H gradient echo images were recorded for localization of the kidney using an echo time/repetition time (TE/TR) of 6/30 ms FOV of 12×12×3.2 cm and matrix of 256×256×32. 3D gradient echo ^23Na images were recorded using (TE/TR) of 1.7/60 ms and a 90° OSIRREAD adiabatic pulse, field of view (FOV) of 12×12×8 […], and matrix of 128×128×16, with 20 scans (40 min).
The sodium image was analyzed by a pixel by pixel analysis that was performed in order to assess the behavior of the NMR sodium signal along the corticomedullary axis.

[3] = urine sodium concentration by 23Na NMR spectroscopy; assay type: in vivo, rat; settings: urine collected from 15 min after injection, n=3
Method: as §1
Urine sodium: Urine samples of untreated (control) and diuretic rats were collected in a metabolic cage. Collection of the urine from the diuretic rats started 15 minutes after injection of the diuretic, when the urine flow was constant. The urine samples were then centrifuged, and the supernatants transferred to a 5 mm NMR tube placed in the center of a 10 mm NMR tube. The external tube was used as an external reference, and contained a solution of 120 mM NaCl and 5 mM of the shift reagent: thulium (III) 1,4,7,10-tetraacyclododecane-1,4,7,10-tetrakis (methylene phosphonate) (TmDOTP^5−) (Macrocyclics, Dallas, Tex., USA) reaching total [Na^+] of 150 mM. ^23Na NMR spectra were recorded with a Bruker DMX-400 spectrometer (Bruker, Rheinstetten, Germany), using a multinuclei broad band probe at 106 MHz by acquiring 10 transients with 90° pulses, pulse-to-acquisition time of delay (DE) of 6 μs, 0.47 sec repetition time (TR) and 0.27 sec acquisition time. Analysis of the ^23Na spectra was performed with an XWIN-NMR Bruker software package. Sodium concentration in the urine was calculated from the integrated area of its signal referenced to the integrated area of the shifted signal of the sodium in the external tube solution (150 mM).

rat kidney [4] = assay: steady state diuresis 23Na MRI of corticomedullary sodium gradient; assay type: in vivo; settings: mannitol (1 ml, 0.1N), n=7
[5] = steady state diuresis, furosemide 10 mg/kg body wt, n=7

SMILES: NS(=O)(=O)c1cc(C(=O)O)c(NCc2ccco2)cc1Cl [furosemide]
- characteristic time constant of sodium decay in the inner medulla (rat kidney [1]): 6.1 ± 0.8 min
- decrease in sodium level in the inner medulla (rat kidney [1]; dynamic study): 44±6%
- reduction in sodium content in the inner medulla (summary statement) (rat kidney [2]; diuretic steady state): 50%
- change of the cortical-outer medullar sodium gradient versus control (rat kidney [2]; diuresis steady state): five-fold reduction
- cortical-outer medullar sodium gradient (slope) (rat kidney [2]; diuresis steady state, n=7): 0.10±0.01 a.u.×mm^−1
- cortico-outer medullar sodium gradient during furosemide diuresis (rat kidney [2]; furosemide steady state diuresis, 10 mg/kg wt, n=7): 0.10±0.01 a.u×mm^−1
- effect on the corticomedullary sodium gradient (rat kidney [2]; steady state diuresis): almost completely cancelled; also recorded: almost complete cancellation
- decrease in sodium signal intensity in the inner medulla (rat kidney [2]; steady state diuresis, furosemide 1 mg/kg body weight, n=3): 10±2%
- decrease in sodium signal intensity in the inner medulla (rat kidney [2]; steady state diuresis, furosemide 7 mg/kg body weight, n=4): 40±4%
- decrease of average sodium signal intensity in the inner medulla (rat kidney [2]; [5]): 47±5%
- decrease of average sodium signal intensity in the outer medulla (rat kidney [2]; [5]): 6±2%
- increase of average sodium signal intensity in the cortex (rat kidney [2]; [5]): 25%±3%
- increase of urine sodium concentration compared to the control [3]: 50±5%

SMILES: OC[C@@H](O)[C@@H](O)[C@H](O)[C@H](O)CO [mannitol]
- decrease of sodium concentration in the inner medulla (rat kidney [4]): 52±1%
- increase of sodium signal intensity in the cortex (rat kidney [4]): 20±2%
- increase of sodium signal intensity in the outer medulla (rat kidney [4]): 13±1%
- characteristic time constant of sodium decay in the inner medulla (rat kidney [1]): 2.5 ± 0.4 min
- total increase in sodium concentration in the cortex (rat kidney [1]; dynamic study, after bolus injection): about 25%
- rate of sodium reduction in the inner medulla relative to furosemide (rat kidney [1]; dynamic study, p=0.002): twice as rapidly; also recorded: more than twofold faster; also recorded: twofold faster decay
- decrease in sodium level in the inner medulla (rat kidney [1]; dynamic study): 52±5%
- reduction in sodium content in the inner medulla (summary statement) (rat kidney [2]; diuretic steady state): 50%
- cortex to outer medulla sodium gradient relative to furosemide induced diuresis (rat kidney [2]; diuresis steady state): fivefold higher
- change of the cortical-outer medullar sodium gradient versus control (rat kidney [2]; diuresis steady state): remained similar to that seen in control kidney
- cortical-outer medullar sodium gradient (slope) (rat kidney [2]; diuresis steady state, n=7): 0.45±0.12 a.u.×mm^−1
- change of the cortical-outer medullar sodium gradient versus control (rat kidney [2]; diuresis steady state, listed as Mannitol): did not affect
- sodium concentration in the outer medulla compared to control (rat kidney [2]; diuretic steady state): increased compared to control
- effect on the corticomedullary sodium gradient (rat kidney [2]; steady state diuresis): marked breakdown
- decrease of urine sodium concentration compared to the control [3]: 49±3%
